In assay [1] the test system is A549 cells. Briefly: Proliferation Assay (A549 viability, Cell Titer Fluor, 72 hours). The format is cell-based. The essentials:
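A549 cells seeded at 1000 cells/well, rested 24 h, then exposed to compound in 0.5% DMSO for 72 h at 37 °C. Viability read by Cell Titer Fluor fluorescence; IC50 from four-parameter logistic fit.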

Assay [2] deals with purified recombinant human GAC (GLS1) (Homo sapiens (Human), UniProt O94925). As to the kind of experiment: GLS1 Enzymatic Activity Assay (dual-coupled enzymatic assay, resorufin/Amplex UltraRed readout).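 Note: glutamate from GAC coupled via glutamate oxidase and peroxidase to resorufin, read as fluorescence (ex 530, em 590 nm) kinetically or at 20 min, four-parameter logistic IC50 fit.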 The format is biochemical.
purified recombinant human GAC (GLS1), sequence (O94925 other isoform, or with tags, fused parts or gaps): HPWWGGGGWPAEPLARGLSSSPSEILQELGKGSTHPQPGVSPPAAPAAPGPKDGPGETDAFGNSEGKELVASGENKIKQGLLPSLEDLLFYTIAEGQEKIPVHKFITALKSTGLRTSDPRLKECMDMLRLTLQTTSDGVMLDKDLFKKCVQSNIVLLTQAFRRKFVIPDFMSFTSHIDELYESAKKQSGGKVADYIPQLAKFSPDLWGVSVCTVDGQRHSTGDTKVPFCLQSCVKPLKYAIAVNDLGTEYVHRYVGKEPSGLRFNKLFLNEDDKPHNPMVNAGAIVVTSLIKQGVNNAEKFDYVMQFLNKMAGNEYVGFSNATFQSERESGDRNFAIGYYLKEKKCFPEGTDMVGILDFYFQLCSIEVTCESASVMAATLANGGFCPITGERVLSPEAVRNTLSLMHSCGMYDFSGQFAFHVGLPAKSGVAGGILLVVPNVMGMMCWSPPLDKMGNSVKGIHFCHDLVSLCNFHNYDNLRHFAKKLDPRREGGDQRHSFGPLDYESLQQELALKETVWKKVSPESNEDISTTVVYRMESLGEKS

This passage reports EC50 and IC50 results from patent US10344025B2, “GLS1 inhibitors for treating disease” (Board of Regents, The University of Texas System, priority 2014, dated 2019).

Read-outs that look alike come from different tables or passages of the source.

The term EC50 denotes the concentration needed to bring the measured effect to its halfway point. Read a low EC50 as higher potency in that assay. The IC50 is the concentration at which inhibition is half-maximal. Turning to `CNC(=O)c1cn(CCC(F)Cn2cc(C(=O)NCc3ccccc3)nn2)nn1` (stereo not drawn) [Example 165, 1-{4-[4-(benzylcarbamoyl)-1H-1,2,3-triazol-1-yl]-3-fluorobutyl}-N-methyl-1H-1,2,3-triazole-4-carboxamide], the EC50 in assay [1] (Homo sapiens, A549, 72 h) lay within 500 to 5000 nM. Further, the IC50 in assay [2] was in the range of 100 to 500 nM.

Molecule `CNC(=O)c1cn(CCC(F)Cn2cc(C(=O)NCc3cccc(CNC(=O)OC(C)(C)C)c3)nn2)nn1` (stereo not drawn) [Example 166, tert-butyl N-[(3-{[(1-{2-fluoro-4-[4-(methylcarbamoyl)-1H-1,2,3-triazol-1-yl]butyl}-1H-1,2,3-triazol-4-yl)formamido]methyl}phenyl)methyl]carbamate] showed an EC50 in assay [1] (Homo sapiens, A549, 72 h) of 100 to 500 nM. For the same molecule, the IC50 in assay [2] was less than 100 nM.

`N#CCNC(=O)c1cn(CCC(F)Cn2cc(C(=O)NCc3cc(OC(F)(F)F)ccc3F)nn2)nn1` (stereo not drawn) [Example 168, N-(cyanomethyl)-1-{3-fluoro-4-[4-({[2-fluoro-5-(trifluoromethoxy)phenyl]methyl}carbamoyl)-1H-1,2,3-triazol-1-yl]butyl}-1H-1,2,3-triazole-4-carboxamide] showed an EC50 in assay [1] (Homo sapiens, A549, 72 h) of 100 to 500 nM. Besides, the IC50 in assay [2] is less than 100 nM.

Turning to `CNC(=O)c1cn(CCC(F)Cn2cc(C(=O)NCc3cnc4ccccc4c3)nn2)nn1` (stereo not drawn) [Example 170, 1-(3-fluoro-4-{4-[(quinolin-3-ylmethyl)carbamoyl]-1H-1,2,3-triazol-1-yl}butyl)-N-methyl-1H-1,2,3-triazole-4-carboxamide], the EC50 in assay [1] (Homo sapiens, A549, 72 h) fell in the range of 500 to 5000 nM. The IC50 in assay [2] was 100 to 500 nM.

Regarding `CNC(=O)c1cn(CCC(F)Cn2cc(C(=O)NCc3cncc4ccccc34)nn2)nn1` (stereo not drawn) [Example 171, 1-(3-fluoro-4-{4-[(isoquinolin-4-ylmethyl)carbamoyl]-1H-1,2,3-triazol-1-yl}butyl)-N-methyl-1H-1,2,3-triazole-4-carboxamide], the EC50 in assay [1] (Homo sapiens, A549, 72 h) was 500 to 5000 nM. In addition, the IC50 in assay [2] fell in the range of 100 to 500 nM.

The molecule `CNC(=O)c1cn(CCCCc2ccc(NC(=O)Cc3cccc(CNC(=O)OC(C)(C)C)c3)nn2)nn1` [Example 172] returned an EC50 in assay [1] (Homo sapiens, A549, 72 h) of less than 100 nM. Besides, the IC50 in assay [2] is less than 100 nM.

In assay [1] (Homo sapiens, A549, 72 h), `CNC(=O)c1cn(CCCCc2ccc(NC(=O)Cc3cccc(OCCOC)c3)nn2)nn1` [Example 173, 1-[4-(6-{2-[3-(2-methoxyethoxy)phenyl]acetamido}pyridazin-3-yl)butyl]-N-methyl-1H-1,2,3-triazole-4-carboxamide] had an EC50 of 100 to 500 nM. Also, in assay [2], the half-maximal inhibitory concentration (IC50) lay in the range of 100 to 500 nM.

`CC(=O)Nc1ccc(CCCCn2cc(C(=O)NCc3cccc(OC(F)(F)F)c3)nn2)nn1` [Example 174, 1-[4-(6-acetamidopyridazin-3-yl)butyl]-N-{[3-(trifluoromethoxy)phenyl]methyl}-1H-1,2,3-triazole-4-carboxamide]: in assay [1] (Homo sapiens, A549, 72 h), the EC50 was 100 to 500 nM. In addition, in assay [2], the concentration for half-maximal inhibition (IC50) is less than 100 nM.

As to `CC(=O)Nc1ccc(CCCCn2cc(C(=O)NCc3cc(C(F)(F)F)ccn3)nn2)nn1` [Example 175, 1-[4-(6-acetamidopyridazin-3-yl)butyl]-N-{[4-(trifluoromethyl)pyridin-2-yl]methyl}-1H-1,2,3-triazole-4-carboxamide], the EC50 in assay [1] (Homo sapiens, A549, 72 h) was 100 to 500 nM. Besides, the IC50 in assay [2] is less than 100 nM.

In assay [1] (Homo sapiens, A549, 72 h), `O=C(NCc1cccc(OC(F)(F)F)c1)c1cn(CCCCc2ccc(NC(=O)C3CC3)nn2)nn1` [Example 176, 1-[4-(6-cyclopropaneamidopyridazin-3-yl)butyl]-N-{[3-(trifluoromethoxy)phenyl]methyl}-1H-1,2,3-triazole-4-carboxamide] yielded a half-maximal effective concentration (EC50) of 100 to 500 nM. In addition, in assay [2], the IC50 was less than 100 nM.

In turn, `O=C(NCc1cc(C(F)(F)F)ccn1)c1cn(CCCCc2ccc(NC(=O)C3CC3)nn2)nn1` [Example 177, 1-[4-(6-cyclopropaneamidopyridazin-3-yl)butyl]-N-{[4-(trifluoromethyl)pyridin-2-yl]methyl}-1H-1,2,3-triazole-4-carboxamide] had an EC50 in assay [1] (Homo sapiens, A549, 72 h) of 100 to 500 nM. Moreover, the IC50 in assay [2] is less than 100 nM.

The molecule `CNC(=O)c1cn(CCCCc2ccc(NC(=O)Cc3cccc(N4CCOCC4)c3)nn2)nn1` [Example 178, N-methyl-1-[4-(6-{2-[3-(morpholin-4-yl)phenyl]acetamido}pyridazin-3-yl)butyl]-1H-1,2,3-triazole-4-carboxamide] had a concentration giving a half-maximal response (EC50) in assay [1] (Homo sapiens, A549, 72 h) of 100 to 500 nM. For the same molecule, the IC50 in assay [2] is less than 100 nM.

As to `CNC(=O)c1cn(CCCCc2ccc(NC(=O)[C@@H](C)c3ccccc3)nn2)nn1` [Example 179, N-methyl-1-(4-{6-[(2S)-2-phenylpropanamido]pyridazin-3-yl}butyl)-1H-1,2,3-triazole-4-carboxamide], the EC50 in assay [1] (Homo sapiens, A549, 72 h) is 500 to 5000 nM. Moreover, in assay [2], the IC50 was less than 100 nM.

`CNC(=O)c1cn(CCCCc2ccc(NC(=O)Cc3cccc(Cl)c3F)nn2)nn1` [Example 180, 1-(4-{6-[2-(3-chloro-2-fluorophenyl)acetamido]pyridazin-3-yl}butyl)-N-methyl-1H-1,2,3-triazole-4-carboxamide] gave an EC50 in assay [1] (Homo sapiens, A549, 72 h) of 100 to 500 nM. In assay [2], the 50% inhibitory concentration (IC50) is less than 100 nM.

Regarding `CNC(=O)c1cn(CCC(F)Cn2cc(C(=O)NCc3ccc(OC(F)F)cc3)nn2)nn1` (stereo not drawn) [Example 181, 1{4-[4-({[4-(difluoromethoxy)phenyl]methyl}carbamoyl)-1H-1,2,3-triazol-1-yl]-3-fluorobutyl}-N-methyl-1H-1,2,3-triazole-4-carboxamide], the EC50 in assay [1] (Homo sapiens, A549, 72 h) lay in the range of 500 to 5000 nM. The IC50 in assay [2] is 100 to 500 nM.

In assay [1] (Homo sapiens, A549, 72 h), `CNC(=O)c1cn(CCC(F)Cn2cc(C(=O)NCc3cccc(C#N)c3)nn2)nn1` (stereo not drawn) [Example 182, 1-[4-(4-{[(3-cyanophenyl)methyl]carbamoyl}-1H-1,2,3-triazol-1-yl)-3-fluorobutyl]-N-methyl-1H-1,2,3-triazole-4-carboxamide] had an EC50 of more than 5000 nM. For the same molecule, the IC50 in assay [2] lay in the range of 100 to 500 nM.

Take `CNC(=O)c1cn(CCC(F)Cn2cc(C(=O)NCc3cccc(S(C)(=O)=O)c3)nn2)nn1` (stereo not drawn) [Example 183, 1-[3-fluoro-4-(4-{[(3-methanesulfonylphenyl)methyl]carbamoyl}-1H-1,2,3-triazol-1-yl)butyl]-N-methyl-1H-1,2,3-triazole-4-carboxamide]: the concentration for a half-maximal effect (EC50) in assay [1] (Homo sapiens, A549, 72 h) was more than 5000 nM. Moreover, the IC50 in assay [2] was 100 to 500 nM.

Turning to `CNC(=O)c1cn(CCC(F)Cn2cc(C(=O)NCc3ccc(C(F)(F)F)cn3)nn2)nn1` (stereo not drawn) [Example 184, 1-{3-fluoro-4-[4-({[5-(trifluoromethyl)pyridin-2-yl]methyl}carbamoyl)-1H-1,2,3-triazol-1-yl]butyl}-N-methyl-1H-1,2,3-triazole-4-carboxamide], the EC50 in assay [1] (Homo sapiens, A549, 72 h) is more than 5000 nM. The IC50 in assay [2] was 500 to 5000 nM.

`CNC(=O)c1cn(CCC(F)Cn2cc(C(=O)NCc3cccc(C(=O)OC)c3)nn2)nn1` (stereo not drawn) [Example 185, methyl 3-{[(1-{2-fluoro-4-[4-(methylcarbamoyl)-1H-1,2,3-triazol-1-yl]butyl}-1H-1,2,3-triazol-4-yl)formamido]methyl} benzoate] returned an EC50 in assay [1] (Homo sapiens, A549, 72 h) of 500 to 5000 nM. Moreover, the IC50 in assay [2] was 100 to 500 nM.

Take `CNC(=O)c1cn(CCC(F)Cn2cc(C(=O)NCc3ccc(C(F)(F)F)nc3)nn2)nn1` (stereo not drawn) [Example 186, 1-{3-fluoro-4-[4-({[6-(trifluoromethyl)pyridin-3-yl]methyl}carbamoyl)-1H-1,2,3-triazol-1-yl]butyl}-N-methyl-1H-1,2,3-triazole-4-carboxamide]: the EC50 in assay [1] (Homo sapiens, A549, 72 h) lay in the range of 500 to 5000 nM. In addition, the concentration for half-maximal inhibition (IC50) in assay [2] fell in the range of 100 to 500 nM.

`CNC(=O)c1cn(CCC(F)Cn2cc(C(=O)NCc3ccc(C)nc3)nn2)nn1` (stereo not drawn) [Example 187, 1-[3-fluoro-4-(4-{[(6-methylpyridin-3-yl)methyl]carbamoyl}-1H-1,2,3-triazol-1-yl)butyl]-N-methyl-1H-1,2,3-triazole-4-carboxamide] gave an EC50 in assay [1] (Homo sapiens, A549, 72 h) of more than 5000 nM. Also, in assay [2], the IC50 is 100 to 500 nM.

Consider `CNC(=O)c1cn(CCCCc2ccc(NC(=O)Cc3cncc(-c4cccc(OC(F)(F)F)c4)c3)nn2)nn1` [Example 188, N-methyl-1-(4-(6-(2-(5-(3-(trifluoromethoxy)phenyl)pyridin-3-yl)acetamido)pyridazin-3-yl)butyl)-1H-1,2,3-triazole-4-carboxamide], for which the EC50 in assay [1] (Homo sapiens, A549, 72 h) was less than 100 nM. Also, in assay [2], the IC50 was less than 100 nM.

In assay [1] (Homo sapiens, A549, 72 h), `CNC(=O)c1cn(CC(F)CCc2nnc(C(=O)NCc3ccc(C(F)(F)F)cn3)s2)nn1` (stereo not drawn) [Example 189, 5-{3-fluoro-4-[4-(methylcarbamoyl)-1H-1,2,3-triazol-1-yl]butyl}-N-{[5-(trifluoromethyl)pyridin-2-yl]methyl}-1,3,4-thiadiazole-2-carboxamide] came in with an EC50 of more than 5000 nM. In addition, in assay [2], the IC50 was in the range of 500 to 5000 nM.

In assay [1], `CNC(=O)c1cn(C[C@@H](F)CCc2nnc(NC(=O)Cc3cccc(OC(F)(F)F)c3)s2)nn1` [Example 193, (S)-1-(2-fluoro-4-(5-(2-(3-(trifluoromethoxy)phenyl)acetamido)-1,3,4-thiadiazol-2-yl)butyl)-N-methyl-1H-1,2,3-triazole-4-carboxamide] gave an EC50 of 500 to 5000 nM. The IC50 in assay [2] is less than 100 nM.

For `CNC(=O)c1cn(C[C@@H](F)CCc2nnc(NC(=O)Cc3cccc(OC(F)(F)F)c3)s2)nn1` [Example 194, (S)-1-(2-fluoro-4-(5-(2-(3-(trifluoromethoxy)phenyl)acetamido)-1,3,4-thiadiazol-2-yl)butyl)-N-methyl-1H-1,2,3-triazole-4-carboxamide], in assay [1], the EC50 is less than 100 nM. Moreover, in assay [2], the half-inhibitory concentration (IC50) is less than 100 nM.

`CNC(=O)c1cn(CC(F)CCc2nnc(NC(=O)Cc3cncc(-c4cccc(OC(F)(F)F)c4)c3)s2)nn1` (stereo not drawn) [Example 195, 1-(2-fluoro-4-(5-(2-(5-(3-(trifluoromethoxy)phenyl)pyridin-3-yl)acetamido)-1,3,4-thiadiazol-2-yl)butyl)-N-methyl-1H-1,2,3-triazole-4-carboxamide]: the EC50 in assay [1] (Homo sapiens, A549, 72 h) was less than 100 nM. Besides, the 50% inhibitory concentration (IC50) in assay [2] is less than 100 nM.

For `O=C(Cc1ccccn1)Nc1nnc(CC[C@H](F)Cn2cc(C(=O)NCc3cc(OC(F)(F)F)ccc3F)nn2)s1` [Example 197, (S)-1-(2-fluoro-4-(5-(2-(pyridin-2-yl)acetamido)-1,3,4-thiadiazol-2-yl)butyl)-N-(2-fluoro-5-(trifluoromethoxy)benzyl)-1H-1,2,3-triazole-4-carboxamide], the EC50 in assay [1] (Homo sapiens, A549, 72 h) was less than 100 nM. Also, in assay [2], the IC50 was less than 100 nM.
